The source made the active and inactive calls. The rule behind the calls is not given here. A value given as a limit tells only on which side of the number the result lay.

One test relates to Rattus norvegicus. As to the kind of experiment: Antihyperglycemic activity in Zucker fa/fa rat by oral glucose tolerance test at 3 umol/kg, po. The class given is functional, organism-based.
The target in a further test is Dipeptidyl peptidase 4 (Homo sapiens, UniProt P27487). As to the kind of experiment: Inhibition of DPP4.
Chain of Dipeptidyl peptidase 4 (P27487 whole entry): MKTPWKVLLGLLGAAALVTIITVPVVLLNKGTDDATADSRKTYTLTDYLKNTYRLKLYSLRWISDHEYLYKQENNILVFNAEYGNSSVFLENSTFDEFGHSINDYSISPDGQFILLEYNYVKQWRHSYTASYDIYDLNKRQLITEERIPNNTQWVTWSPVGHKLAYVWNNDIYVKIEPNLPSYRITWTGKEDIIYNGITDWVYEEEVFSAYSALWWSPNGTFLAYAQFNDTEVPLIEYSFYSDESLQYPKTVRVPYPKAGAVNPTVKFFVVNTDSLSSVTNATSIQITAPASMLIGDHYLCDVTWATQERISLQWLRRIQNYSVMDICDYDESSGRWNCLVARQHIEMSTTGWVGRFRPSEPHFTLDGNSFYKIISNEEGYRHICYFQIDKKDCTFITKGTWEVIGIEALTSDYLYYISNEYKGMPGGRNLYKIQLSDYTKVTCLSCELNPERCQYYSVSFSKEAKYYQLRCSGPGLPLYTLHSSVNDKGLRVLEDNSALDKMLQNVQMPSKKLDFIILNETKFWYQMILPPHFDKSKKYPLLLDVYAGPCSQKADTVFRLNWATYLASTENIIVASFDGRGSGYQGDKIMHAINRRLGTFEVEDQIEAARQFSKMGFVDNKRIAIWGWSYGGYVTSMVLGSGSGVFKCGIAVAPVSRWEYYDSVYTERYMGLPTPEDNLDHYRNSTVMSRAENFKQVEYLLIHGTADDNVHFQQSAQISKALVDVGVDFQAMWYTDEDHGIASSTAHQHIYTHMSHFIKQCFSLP

On to `CN(CC#N)C(=O)[C@@H](N)C12CC3CC(CC(O)(C3)C1)C2`, for which, in the test with Rattus norvegicus, the outcome was Active.

`CC(C)(C#N)NC(=O)[C@@H](N)C12CC3CC(CC(C3)C1)C2` came in with a Ki on Dipeptidyl peptidase 4 above 10 µM.

The compound `N#CCN(Cc1ccccc1)C(=O)[C@@H](N)C12CC3CC(CC(C3)C1)C2` gave a Ki on Dipeptidyl peptidase 4 above 10 µM.

Compound `CCCCN(CC#N)C(=O)[C@@H](N)C(C)(C)C` had an inhibition constant (Ki) on Dipeptidyl peptidase 4 above 10 µM.

As to `CC(C)(C#N)NC(=O)[C@@H](N)C(C)(C)C`, the Ki at Dipeptidyl peptidase 4 is above 10 µM.

`N#CCNC(=O)[C@@H](N)C12CC3CC(CC(C3)C1)C2`: on Dipeptidyl peptidase 4, the Ki is above 10 µM.
